Six compounds from ChEMBL document CHEMBL5634159, “Discovery of novel tumor-targeted near-infrared probes with 6-substituted pyrrolo[2,3-d]pyrimidines as targeting ligands” (Eur J Med Chem, 2023) can be followed below.

Calls of active or inactive are those of the source. The calls are words filed in the database; no cut-off is given here.

A short description of data set [1]: Drug uptake in BALB/c mouse kidney xenografted with human KB cells at 10 nmol measured for 8 hrs. The data set is classed as ADME, tissue-based. Conditions: in vivo. (In general: In xenograft studies the graft and the host belong to different species.)
Data set [2] in a line: Drug uptake in BALB/c mouse liver xenografted with human KB cells at 10 nmol measured for 8 hrs. The data set is classed as ADME, tissue-based. Conditions: in vivo.
Data set [3] in a line: Drug uptake in human A549 cells assessed as increase in fluorescence intensity in presence of folic acid by fluorescence microscopic analysis. The data set is classed as ADME, cell-based.
Data set [4] in a line: Drug uptake in BALB/c mouse intestine xenografted with human KB cells at 10 nmol measured for 8 hrs. As to conditions: in vivo. The data set is classed as ADME, tissue-based.
In another data set the test system is HUVEC. In words: Cytotoxicity against human HUVEC cells assessed as cell growth inhibition incubated for 24 hrs by CCK-8 assay. The data set is classed as toxicity, cell-based. On the technique in general: Tetrazolium assays rely on reduction of a dye to a coloured formazan, in cell work by metabolically active cells.
Data set [5] in a line: Drug uptake in BALB/c mouse spleen xenografted with human KB cells at 10 nmol measured for 8 hrs. The data set is classed as ADME, tissue-based. As to conditions: in vivo.
A short description of data set [6]: Drug uptake in BALB/c mouse lung xenografted with human KB cells at 10 nmol measured for 8 hrs. The data set is classed as ADME, tissue-based. As to conditions: in vivo.
Data set [7] in a line: Drug uptake in BALB/c mouse stomach xenografted with human KB cells at 10 nmol measured for 8 hrs. As to conditions: in vivo. The data set is classed as ADME, tissue-based.
Data set [8] is described as follows: Drug uptake in BALB/c nude mouse tumor xenografted with human KB cells assessed as increase in fluorescence signals measured for 2 days. The data set is classed as ADME, tissue-based, Neoplasm. As to conditions: in vivo, 48 h, time 2 day.
Data set [9] can be described thus: Drug uptake in BALB/c mouse heart xenografted with human KB cells at 10 nmol measured for 8 hrs. The data set is classed as ADME, tissue-based. As to conditions: in vivo.
The target of a further data set is Folate receptor alpha (Homo sapiens, UniProt P15328). In words: Binding affinity to Folate receptor alpha in human KB cells assessed as dissociation constant. The data set is classed as cell-based.
Chain of Folate receptor alpha (P15328 whole entry): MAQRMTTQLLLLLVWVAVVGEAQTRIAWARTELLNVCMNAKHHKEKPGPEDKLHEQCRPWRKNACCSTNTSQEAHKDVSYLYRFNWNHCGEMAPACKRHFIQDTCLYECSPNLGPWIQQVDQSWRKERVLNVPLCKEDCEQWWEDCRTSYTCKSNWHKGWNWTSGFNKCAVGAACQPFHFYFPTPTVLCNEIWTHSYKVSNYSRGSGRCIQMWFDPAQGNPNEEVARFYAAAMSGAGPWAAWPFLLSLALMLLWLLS
In data set [10] the test system is KB. Kind of data set: Binding affinity to Folate receptor in human KB cells assessed as increase in fluorescence intensity incubated for 2 hrs by fluorescence microscopic analysis. The data set is classed as cell-based.
Another data set concerns the target Folate receptor beta (Mus musculus, UniProt Q05685). Kind of data set: Binding affinity to Folate receptor beta in mouse RAW264.7 cells assessed as dissociation constant. The data set is classed as cell-based.
Data set [11] relates to KB. Kind of data set: Binding affinity to Folate receptor in human KB cells assessed as relative fluorescence intensity preincubated with compound for 1 hr followed by folic acid addition and measured after 1 hr by flow cytometry analysis. Conditions: time 2.0 hrs. The data set is classed as cell-based. Background: In flow cytometry, cells or beads pass a laser one at a time.

A short description of data set [12]: Drug uptake in mouse RAW264.7 cells assessed as increase in fluorescence intensity in presence of folic acid by fluorescence microscopic analysis. The data set is classed as ADME, cell-based.
Data set [13] relates to KB. In words: Binding affinity to Folate receptor in human KB cells assessed as relative fluorescence intensity incubated for compound for 1 hr by flow cytometry analysis. The data set is classed as cell-based.
A short description of data set [14]: Ex vivo biodistribution in BALB/c mouse tumor of human KB cells expressing folate receptor alpha measured for 8 hrs by imaging analysis. The data set is classed as ADME, organism-based, Neoplasm.
Data set [15] has as its system KB. In words: Binding affinity to Folate receptor in human KB cells assessed as relative fluorescence intensity incubated for 1 hr by flow cytometry analysis. The data set is classed as cell-based.
Data set [16] can be described thus: Drug uptake in BALB/c mouse tumor xenografted with human KB cells at 10 nmol measured for 8 hrs in presence of folic acid. Conditions: in vivo. The data set is classed as ADME, tissue-based, Neoplasm.
Data set [17] can be described thus: Ratio of biodistribution in tumor to liver of human KB cell xenografted in BALB/c mouse at 10 nmol measured for 8 hrs. The data set is classed as ADME, organism-based. As to conditions: in vivo.
A short description of data set [18]: Ratio of biodistribution in tumor to lung of human KB cell xenografted in BALB/c mouse at 10 nmol measured for 8 hrs. The data set is classed as ADME, organism-based. As to conditions: in vivo.
The nature of data set [19]: Acute toxicity in ICR mouse assessed as kidney damage at 10 micromol/ml measured for 14 days by H and E staining based analysis. The data set is classed as tissue-based. Conditions: in vivo, 336 h, dose 10 µmol/ml, time 14 day.
The nature of data set [20]: Elimination half life in BALB/c mouse at 10 nmol measured for 8 hrs. The data set is classed as ADME. As to conditions: in vivo, read-out: beta t1/2 (converted).
Data set [21] is described as follows: Acute toxicity in ICR mouse assessed as spleen damage at 10 micromol/ml measured for 14 days by H and E staining based analysis. The data set is classed as tissue-based. As to conditions: in vivo, 336 h, dose 10 µmol/ml, time 14 day.
A short description of data set [22]: Acute toxicity in ICR mouse assessed as effect on food intake at 10 micromol/ml measured for 14 days. As to conditions: in vivo, 336 h, dose 10 µmol/ml, time 14 day.
Data set [23] in a line: Drug uptake in BALB/c mouse tumor xenografted with human A549 cells at 10 nmol measured for 8 hrs in presence of folic acid. The data set is classed as ADME, tissue-based, Neoplasm.
The nature of data set [24]: Ratio of biodistribution in tumor to heart of human KB cell xenografted in BALB/c mouse at 10 nmol measured for 8 hrs. The data set is classed as ADME, organism-based. As to conditions: in vivo.
Data set [25] can be described thus: Drug uptake in BALB/c mouse tumor xenografted with human KB cells at 10 nmol measured for 8 hrs. The data set is classed as ADME, tissue-based, Neoplasm. As to conditions: in vivo.
Data set [26] in a line: Acute toxicity in ICR mouse assessed as heart damage at 10 micromol/ml measured for 14 days by H and E staining based analysis. As to conditions: in vivo, 336 h, dose 10 µmol/ml, time 14 day. The data set is classed as tissue-based.
A short description of data set [27]: Acute toxicity in ICR mouse assessed as effect on body weight at 10 micromol/ml measured for 14 days. As to conditions: in vivo, 336 h, dose 10 µmol/ml, time 14 day.
The nature of data set [28]: Half life in BALB/c mouse at 10 nmol measured for 8 hrs. The data set is classed as ADME. Conditions: in vivo.
Data set [29] can be described thus: Acute toxicity in ICR mouse assessed as lung damage at 10 micromol/ml measured for 14 days by H and E staining based analysis. As to conditions: in vivo, 336 h, dose 10 µmol/ml, time 14 day. The data set is classed as tissue-based.
Data set [30] can be described thus: Acute toxicity in ICR mouse assessed as animal death at 10 micromol/ml measured for 14 days. Conditions: in vivo, 336 h, dose 10 µmol/ml, time 14 day.
Data set [31] in a line: Drug uptake in BALB/c nude mouse tumor xenografted with human A549 cells assessed as increase in fluorescence signals measured for 2 days. The data set is classed as ADME, tissue-based, Neoplasm. Conditions: 48 h, time 2 day.
Data set [32] in a line: Acute toxicity in ICR mouse assessed as liver damage at 10 micromol/ml measured for 14 days by H and E staining based analysis. The data set is classed as tissue-based. Conditions: in vivo, 336 h, dose 10 µmol/ml, time 14 day.

Chain of Folate receptor beta (Q05685 whole entry): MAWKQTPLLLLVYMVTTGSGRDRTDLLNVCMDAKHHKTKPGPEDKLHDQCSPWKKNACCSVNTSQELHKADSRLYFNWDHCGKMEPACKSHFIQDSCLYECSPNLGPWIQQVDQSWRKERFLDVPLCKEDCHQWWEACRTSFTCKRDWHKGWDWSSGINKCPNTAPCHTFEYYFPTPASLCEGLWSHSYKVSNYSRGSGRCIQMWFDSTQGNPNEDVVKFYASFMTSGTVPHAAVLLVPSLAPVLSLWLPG

Turning to `CC1(C)C(/C=C/C2=C(Oc3ccc(C[C@H](NC(=O)CNC(=O)Cc4cc5c(=O)[nH]c(N)nc5[nH]4)C(=O)O)cc3)C(=C/C=C3/N(CCCCS(=O)(=O)O)c4ccccc4C3(C)C)/CCC2)=[N+](CCCCS(=O)(=O)[O-])c2ccccc21`, the Drug uptake entry in data set [1], in data set [2], in data set [3], in data set [4], in [5] and in data set [6] was “Not Active” in each case. Besides, the Drug uptake result in data set [7] was “Not Active”; in [8], “Active”; in [9], “Not Active”; in data set [12], “Not Active”; in data set [14] it was “Active”. Moreover, the Activity result in the data set with HUVEC is listed as “Non-Toxic”. The equilibrium dissociation constant (Kd) (commonly a measure of binding affinity in units of concentration) at Folate receptor alpha worked out at 0.0398 µM; on Folate receptor beta it was 0.0261 µM. Moreover, the outcome in the data set on KB [10], in the data set on KB [11] and in the data set with KB [13] was Active.

Take `CC1(C)C(/C=C/C2=C(SC[C@@H](NC(=O)CC[C@H](NC(=O)CNC(=O)Cc3cc4c(=O)[nH]c(N)nc4[nH]3)C(=O)O)C(=O)O)C(=C/C=C3/N(CCCCS(=O)(=O)O)c4ccccc4C3(C)C)/CCC2)=[N+](CCCCS(=O)(=O)[O-])c2ccccc21`: the Drug uptake entry in data set [1], in [2], in data set [4], in data set [5], in data set [6] and in data set [7] was “Not Active” throughout. Also, the Drug uptake result is listed as “Not Active” in [9] and “Active” in data set [14]. In the data set with HUVEC, the Activity entry is “Non-Toxic”. Besides, the Kd at Folate receptor alpha amounted to 0.0612 µM; on Folate receptor beta, 0.0479 µM. For the same compound, the result in the data set with KB [13] was inactive.

Regarding `CC1(C)C(/C=C/C2=C(Oc3ccc(C[C@H](NC(=O)c4ccc(NCc5cnc6nc(N)[nH]c(=O)c6n5)cc4)C(=O)O)cc3)C(=C/C=C3/N(CCCCS(=O)(=O)O)c4ccccc4C3(C)C)/CCC2)=[N+](CCCCS(=O)(=O)[O-])c2ccccc21`, the Activity entry in the data set with HUVEC was “Non-Toxic”. In addition, in [8], the Drug uptake entry is on record as “Active”. In the data set on KB [15], the outcome was Active. Moreover, the dissociation constant Kd at Folate receptor alpha was 0.0221 µM; on Folate receptor beta it was 0.0209 µM.

As to `CC1(C)C(/C=C/C2=C(Oc3ccc(C[C@H](NC(=O)c4ccc(CCCCc5cc6c(=O)[nH]c(N)nc6[nH]5)s4)C(=O)O)cc3)C(=C/C=C3/N(CCCCS(=O)(=O)O)c4ccccc4C3(C)C)/CCC2)=[N+](CCCCS(=O)(=O)[O-])c2ccccc21`, the Drug uptake entry in [2] and in [8] was “Active” each time. The Activity result in the data set on HUVEC was “Non-Toxic”. In addition, the outcome in the data set with KB [15] and in the data set with KB [11] was Active. The results for the dissociation constant Kd at Folate receptor alpha and on Folate receptor beta were 0.0103 µM and 0.011 µM, respectively.

In the case of `CC1(C)C(/C=C/C2=C(SC[C@H](NC(=O)CNC(=O)Cc3cc4c(=O)[nH]c(N)nc4[nH]3)C(=O)O)C(=C/C=C3/N(CCCCS(=O)(=O)O)c4ccccc4C3(C)C)/CCC2)=[N+](CCCCS(=O)(=O)[O-])c2ccccc21`, the Drug uptake entry in [1], in data set [2], in data set [4], in data set [5], in data set [6] and in data set [7] was “Not Active” throughout. In addition, the Drug uptake result in data set [9] is “Not Active”; in data set [14], “Active”. Also, the Activity result with HUVEC is on record as “Non-Toxic”. For the same compound, the Kd on Folate receptor alpha is 0.0819 µM; on Folate receptor beta, 0.0589 µM. Moreover, the outcome in the data set with KB [13] was inactive.

In the case of `CC1(C)C(/C=C/C2=C(Oc3ccc(C[C@H](NC(=O)c4ccc(CCCCc5cc6c(=O)[nH]c(N)nc6[nH]5)cc4)C(=O)O)cc3)C(=C/C=C3/N(CCCCS(=O)(=O)O)c4ccccc4C3(C)C)/CCC2)=[N+](CCCCS(=O)(=O)[O-])c2ccccc21`, the Drug uptake entry is given as “Not Active” in [16]; “Active” in [8]; “Not Active” in data set [23]; “Active” in data set [25]; “Not Active” in data set [31]. Further, the values for the Ratio in [17], in data set [18] and in [24] were 2, 8 and 13, respectively. Further, the Activity result (with HUVEC; in [19]; in [21]; in [22]; in data set [26]; in [27]) was “Non-Toxic” in each case. Further, the Activity entry in [29], in data set [30] and in [32] was “Non-Toxic” throughout. The figures for the half-life in [20] and in data set [28] were 60 min and 15 min, respectively. The outcome in the data set on KB [15] and with KB [11] was Active. The values for the Kd at Folate receptor alpha and at Folate receptor beta were 0.0142 µM and 0.016 µM, respectively.
